Reference: patent US6620828B2, “Thiazole compounds and pharmaceutical compositions for inhibiting protein kinases and methods for their use” (Agouron Pharmaceuticals, Inc., priority 1999, dated 2003)

Test system: human umbilical vein endothelial cells (HUVEC)
Experiment: HUVEC proliferation assay
Assay type: cell-based
Settings: Homo sapiens, HUVEC, crude combinatorial urea library; for inhibition at 0.01 µM: 10 nM, read-out: Inhibition of HUVEC Proliferation % inhibition @ 10 nM; for inhibition at 0.05 µM: 50 nM, read-out: Inhibition of HUVEC Proliferation % inhibition @ 50 nM
Protocol: HUVEC Proliferation Assay
This assay determines the ability of a test compound to inhibit the growth factor-stimulated proliferation of human umbilical vein endothelial cells (“HUVEC”). HUVEC cells (passage 3-4, Clonetics, Corp.) were thawed into EGM2 culture medium (Clonetics Corp) in T75 flasks. Fresh EGM2 medium was added to the flasks 24 hours later. Four or five days later, cells were exposed to another culture medium (F12K medium supplemented with 10% fetal bovine serum (FBS), 60 μg/ml endothelial cell growth supplement (ECGS), and 0.1 mg/ml heparin). Exponentially-growing HUVEC cells were used in experiments thereafter. Ten to twelve thousand HUVEC cells were plated in 96-well dishes in 100 μl of rich, culture medium (described above). The cells were allowed to attach for 24 hours in this medium. The medium was then removed by aspiration and 105 μl of starvation media (F12K+1% FBS) was added to each well. After 24 hours, 15 μl of test agent dissolved in 1% DMSO in starvation medium or this vehicle alone was added into each treatment well; the final DMSO concentration was 0.1%. One hour later, 30 μl of VEGF (30 ng/ml) in starvation media was added to all wells except those containing untreated controls; the final VEGF concentration was 6 ng/ml. Cellular proliferation was quantified 72 hours later by MTT dye reduction, at which time cells were exposed for 4 hours MTT (Promega Corp.). Dye reduction was stopped by addition of a stop solution (Promega Corp.) and absorbance at 595 λ was determined on a 96-well spectrophotometer plate reader.
IC50 values were calculated by curve-fitting the response of A^595 to various concentrations of the test agent; typically, seven concentrations separated by 0.5 log were employed, with triplicate wells at each concentration. For screening compound library plates, one or two concentrations (one well per concentration) were employed, and the % inhibition was calculated by the following formula:
% inhibition=(control−test) divided by (control−starvation) […]
control=A^595 when VEGF is present without test agent test=A^595 when VEGF is present with test agent starvation=A^595 when VEGF and test agent are both absent.

Row | SMILES | inhibition at 0.01 µM [%] | inhibition at 0.05 µM [%]
1 | COc1cccc(C(=O)Nc2cccc(-c3csc(-c4sc(NC(=O)NCC5CCC=CO5)nc4N)n3)c2)c1 (stereo not drawn) | -5 | 33
2 | CCN(CC)CCNC(=O)Nc1nc(N)c(-c2nc(-c3cccc(NC(=O)c4cccc(OC)c4)c3)cs2)s1 | -38 | 39
3 | COc1cccc(C(=O)Nc2cccc(-c3csc(-c4sc(NC(=O)NC5CC(C)(C)NC(C)(C)C5)nc4N)n3)c2)c1 | -13 | 29
4 | COc1cccc(C(=O)Nc2cccc(-c3csc(-c4sc(NC(=O)NCCc5ccc(N)cc5)nc4N)n3)c2)c1 | -3 | 3
5 | COc1cccc(C(=O)Nc2cccc(-c3csc(-c4sc(NC(=O)NCCCN5CCOCC5)nc4N)n3)c2)c1 | 19 | 83
6 | COc1cccc(C(=O)Nc2cccc(-c3csc(-c4sc(NC(=O)NCCC(C)C)nc4N)n3)c2)c1 | 25 | 18
7 | COc1cccc(C(=O)Nc2cccc(-c3csc(-c4sc(NC(=O)NCC5CCCO5)nc4N)n3)c2)c1 (stereo not drawn) | 46 | 87
8 | COc1cccc(C(=O)Nc2cccc(-c3csc(-c4sc(NC(=O)NCCCN5CCCC5=O)nc4N)n3)c2)c1 | 28 | 123
9 | COc1cccc(C(=O)Nc2cccc(-c3csc(-c4sc(NC(=O)NCCC5CCCN5C)nc4N)n3)c2)c1 (stereo not drawn) | 39 | 0
10 | COc1cccc(C(=O)Nc2cccc(-c3csc(-c4sc(NC(=O)NCCN5CCCCC5)nc4N)n3)c2)c1 | 22 | 25
11 | COc1cccc(C(=O)Nc2cccc(-c3csc(-c4sc(NC(=O)NCc5ccccc5)nc4N)n3)c2)c1 | -11 | 114
12 | COc1cccc(C(=O)Nc2cccc(-c3csc(-c4sc(NC(=O)NCCCN5CCCCC5C)nc4N)n3)c2)c1 (stereo not drawn) | -18 | 55
13 | CCCCN(CCCC)CCCNC(=O)Nc1nc(N)c(-c2nc(-c3cccc(NC(=O)c4cccc(OC)c4)c3)cs2)s1 | -5 | 62
14 | CCN(CC)CCCNC(=O)Nc1nc(N)c(-c2nc(-c3cccc(NC(=O)c4cccc(OC)c4)c3)cs2)s1 | -7 | 45
15 | COc1cccc(C(=O)Nc2cccc(-c3csc(-c4sc(NC(=O)NCC(N)=O)nc4N)n3)c2)c1 | 12 | 25
16 | COc1cccc(C(=O)Nc2cccc(-c3csc(-c4sc(NC(=O)NCC(C)C)nc4N)n3)c2)c1 | -1 | -23
17 | COc1cccc(C(=O)Nc2cccc(-c3csc(-c4sc(NC(=O)NCCc5cccnc5)nc4N)n3)c2)c1 | 35 | 97
18 | COc1cccc(C(=O)Nc2cccc(-c3csc(-c4sc(NC(=O)NCCO)nc4N)n3)c2)c1 | 38 | 
19 | COc1cccc(C(=O)Nc2cccc(-c3csc(-c4sc(NC(=O)N[C@@H](CC(N)=O)C(N)=O)nc4N)n3)c2)c1 | 19 | 23
20 | CNC(=O)CNC(=O)Nc1nc(N)c(-c2nc(-c3cccc(NC(=O)c4cccc(OC)c4)c3)cs2)s1 | 42 | 23
21 | COc1cccc(C(=O)Nc2cccc(-c3csc(-c4sc(NC(=O)NCCc5cncn5C)nc4N)n3)c2)c1 | -15 | 15
22 | CCN1CCCC1CNC(=O)Nc1nc(N)c(-c2nc(-c3cccc(NC(=O)c4cccc(OC)c4)c3)cs2)s1 (stereo not drawn) | -29 | 108
23 | COc1cccc(C(=O)Nc2cccc(-c3csc(-c4sc(NC(=O)NC(C)CN(C)C)nc4N)n3)c2)c1 (stereo not drawn) | 12 | 28
24 | COc1cccc(C(=O)Nc2cccc(-c3csc(-c4sc(NC(=O)NCCCN5CCCC5)nc4N)n3)c2)c1 | 1 | 101
25 | COc1cccc(C(=O)Nc2cccc(-c3csc(-c4sc(NC(=O)NCCN(C(C)C)C(C)C)nc4N)n3)c2)c1 | 2 | 22
26 | COc1cccc(C(=O)Nc2cccc(-c3csc(-c4sc(NC(=O)NCCCN5CCN(C)CC5)nc4N)n3)c2)c1 | -9 | 67
27 | COc1cccc(C(=O)Nc2cccc(-c3csc(-c4sc(NC(=O)NCCN5CCNC5=O)nc4N)n3)c2)c1 | 0 | 35

Row | SMILES | inhibition at 0.01 µM [%] | inhibition at 0.05 µM [%]
28 | COc1cccc(C(=O)Nc2cccc(-c3csc(-c4sc(NC(=O)NCCC(N)=O)nc4N)n3)c2)c1 | 30 | 1
29 | CCN(CC)CCCC(C)NC(=O)Nc1nc(N)c(-c2nc(-c3cccc(NC(=O)c4cccc(OC)c4)c3)cs2)s1 (stereo not drawn) | 7 | 68
30 | COc1cccc(C(=O)Nc2cccc(-c3csc(-c4sc(NC(=O)NCCCCN(C)C)nc4N)n3)c2)c1 | -2 | 71
31 | COc1cccc(C(=O)Nc2cccc(-c3csc(-c4sc(NC(=O)NCCCCCCN(C)C)nc4N)n3)c2)c1 | 32 | 24
32 | COc1cccc(C(=O)Nc2cccc(-c3csc(-c4sc(NC(=O)NCC(C)N(C)C)nc4N)n3)c2)c1 (stereo not drawn) | -22 | -3
33 | COc1cccc(C(=O)Nc2cccc(-c3csc(-c4sc(NC(=O)NCCCN5CCCCCC5)nc4N)n3)c2)c1 | 2 | 117
34 | COc1cccc(C(=O)Nc2cccc(-c3csc(-c4sc(NC(=O)NCCCN5CCCCC5)nc4N)n3)c2)c1 | 15 | 49
35 | COc1cccc(C(=O)Nc2cccc(-c3csc(-c4sc(NC(=O)NC5CCS(=O)(=O)C5)nc4N)n3)c2)c1 (stereo not drawn) | 9 | 86
36 | COc1cccc(C(=O)Nc2cccc(-c3csc(-c4sc(NCCC(=O)NCC(=O)O)nc4N)n3)c2)c1 | -34 | 7
37 | COc1cccc(C(=O)Nc2cccc(-c3csc(-c4sc(NC(=O)NCC#N)nc4N)n3)c2)c1 | -3 | 3
38 | COc1cccc(C(=O)Nc2cccc(-c3csc(-c4sc(NC(=O)NCC(=O)NO)nc4N)n3)c2)c1 | -1 | 37
39 | COc1cccc(C(=O)Nc2cccc(-c3csc(-c4sc(NC(=O)NCC(=O)O)nc4N)n3)c2)c1 | 42 | 52
40 | COc1cccc(C(=O)Nc2cccc(-c3csc(-c4sc(NC(=O)NCCS(=O)(=O)O)nc4N)n3)c2)c1 | 45 | 46
41 | CCC(O)CNC(=O)Nc1nc(N)c(-c2nc(-c3cccc(NC(=O)c4cccc(OC)c4)c3)cs2)s1 (stereo not drawn) | 30 | 135
42 | COc1cccc(C(=O)Nc2cccc(-c3csc(-c4sc(NC(=O)NCC(C)(C)CO)nc4N)n3)c2)c1 | 7 | 88
43 | CCN1CC(NC(=O)Nc2nc(N)c(-c3nc(-c4cccc(NC(=O)c5cccc(OC)c5)c4)cs3)s2)CN1CC | -24 | 45
44 | CCN(CCNC(=O)Nc1nc(N)c(-c2nc(-c3cccc(NC(=O)c4cccc(OC)c4)c3)cs2)s1)c1cccc(C)c1 | -10 | 125
45 | COc1cccc(C(=O)Nc2cccc(-c3csc(-c4sc(NC(=O)NCC(=N)N)nc4N)n3)c2)c1 | 27 | 46
46 | COc1cccc(C(=O)Nc2cccc(-c3csc(-c4sc(NC(=O)NCC(C)(C)C)nc4N)n3)c2)c1 | 44 | 34
47 | COc1cccc(C(=O)Nc2cccc(-c3csc(-c4sc(NC(=O)NCC5(O)CCCCC5)nc4N)n3)c2)c1 | 4 | 2
48 | COc1cccc(C(=O)Nc2cccc(-c3csc(-c4sc(NC(=O)NCCc5c[nH]cn5)nc4N)n3)c2)c1 | 1 | -43
49 | COc1cccc(C(=O)Nc2cccc(-c3csc(-c4sc(NC(=O)NCS(=O)(=O)O)nc4N)n3)c2)c1 | -8 | 8
50 | COc1cccc(C(=O)Nc2cccc(-c3csc(-c4sc(NC(=O)NCCCN(C)c5ccccc5)nc4N)n3)c2)c1 | 17 | 98
51 | COc1cccc(C(=O)Nc2cccc(-c3csc(-c4sc(NC(=O)NCc5ccc(S(N)(=O)=O)cc5)nc4N)n3)c2)c1 | 26 | 36
52 | COc1cccc(C(=O)Nc2cccc(-c3csc(-c4sc(NC(=O)NCCCN(CCO)CCO)nc4N)n3)c2)c1 | 2 | 65
53 | COc1cccc(C(=O)Nc2cccc(-c3csc(-c4sc(NC(=O)NCCc5ccncc5)nc4N)n3)c2)c1 | -5 | 97
